Measured values from ChEMBL document CHEMBL1201862, “PubChem BioAssay data set” (2004).
Active and inactive are the calls of the source.

What was measured:
[1] = target: Protein Wnt-3a (Mus musculus, UniProt P27467); test: Wnt3a-driven reporter signaling inhibition, dose response, selectivity assay for Gli-SUFU antagonist project, Wnt-LIGHT cells, luminescence (AID 651570); type: functional; details: read-out: IC50_Mean;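 note: Wnt-LIGHT reporter cells stimulated with conditioned medium from Wnt3a-producing cells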
[2] = HepG2 cell cytotoxicity, dose response, cytotoxicity control for Shn3 inhibitor project, CellTiter-Glo, cherry-picked (AID 624134); type: functional, cell-based
[3] = control 3'UTR Renilla luciferase suppression, dose response, counter-screen for Shn3 inhibitor project, cell-based, Clone20-Shn3RL, cherry-picked (AID 624133); type: functional
[4] = target: COUP transcription factor 2 (Homo sapiens, UniProt P24468); test: Luminescence-based cell-based high throughput dose response assay to identify inhibitors of COUP-TFII (NR2F2).; type: functional;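 note: HEK293 cells transiently cotransfected with COUP-TFII expression vector and reporter; luciferase reporter luminescence driven by COUP-TFII from the pX2-168 reporter plasmid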
[5] = target: Paired box protein Pax-8 (Homo sapiens, UniProt Q06710); test: inhibitors of PAX8-driven TPO luciferase reporter, dose response, RMG-I cells, cherry-pick (AID 687027); type: functional, cell-based;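 note: luciferase reporter driven by Pax8 target thyroperoxidase promoter measured by SteadyGlo luminescence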
[6] = IGROV1 ovarian cancer cell cytotoxicity, dose response, PAX8 inhibitor project, plate reader, dry powder samples (AID 743043); type: functional, cell-based; details: IGROV-1
[7] = cytotoxicity in OVCAR8 ovarian cancer cells, dose response, PAX8 project, cell-based, plate reader, dry powder samples (AID 743197); type: functional; details: OVCAR-8
[8] = Shn3 3'UTR reporter inhibitors, dose response, cell-based, Clone20 osteoblasts, firefly luciferase, cherry-picked (AID 624132); type: functional;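 note: firefly luciferase luminescence from reporter carrying the Shn3 3'UTR in osteoblasts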
[9] = target: T1, Galanin receptor type 3 (Homo sapiens, UniProt O60755); test: Fluorescence-based cell-based primary high throughput dose response assay to identify antagonists of the Galanin Receptor 3 (GalR3).; type: functional
T1 sequence (O60755 whole entry): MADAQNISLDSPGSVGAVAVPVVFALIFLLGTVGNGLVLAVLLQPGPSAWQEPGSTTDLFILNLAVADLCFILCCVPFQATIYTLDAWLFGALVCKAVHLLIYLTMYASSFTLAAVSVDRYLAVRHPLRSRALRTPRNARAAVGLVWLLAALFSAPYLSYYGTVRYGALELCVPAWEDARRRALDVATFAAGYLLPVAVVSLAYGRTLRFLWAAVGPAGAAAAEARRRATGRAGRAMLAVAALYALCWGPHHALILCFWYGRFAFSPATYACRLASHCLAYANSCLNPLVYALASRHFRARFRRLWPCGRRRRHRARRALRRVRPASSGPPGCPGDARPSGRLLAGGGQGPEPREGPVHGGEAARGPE

[10] = cells; type: functional, cell-based; details: HEK-CNG
[11] = target: T2, Sentrin-specific protease 7 (Homo sapiens, UniProt Q9BQF6); type: functional;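 note: Luminescence-based dose-response confirmation of ultra-high-throughput screening hits, measuring inhibition of SENP7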
T2 sequence (Q9BQF6 whole entry): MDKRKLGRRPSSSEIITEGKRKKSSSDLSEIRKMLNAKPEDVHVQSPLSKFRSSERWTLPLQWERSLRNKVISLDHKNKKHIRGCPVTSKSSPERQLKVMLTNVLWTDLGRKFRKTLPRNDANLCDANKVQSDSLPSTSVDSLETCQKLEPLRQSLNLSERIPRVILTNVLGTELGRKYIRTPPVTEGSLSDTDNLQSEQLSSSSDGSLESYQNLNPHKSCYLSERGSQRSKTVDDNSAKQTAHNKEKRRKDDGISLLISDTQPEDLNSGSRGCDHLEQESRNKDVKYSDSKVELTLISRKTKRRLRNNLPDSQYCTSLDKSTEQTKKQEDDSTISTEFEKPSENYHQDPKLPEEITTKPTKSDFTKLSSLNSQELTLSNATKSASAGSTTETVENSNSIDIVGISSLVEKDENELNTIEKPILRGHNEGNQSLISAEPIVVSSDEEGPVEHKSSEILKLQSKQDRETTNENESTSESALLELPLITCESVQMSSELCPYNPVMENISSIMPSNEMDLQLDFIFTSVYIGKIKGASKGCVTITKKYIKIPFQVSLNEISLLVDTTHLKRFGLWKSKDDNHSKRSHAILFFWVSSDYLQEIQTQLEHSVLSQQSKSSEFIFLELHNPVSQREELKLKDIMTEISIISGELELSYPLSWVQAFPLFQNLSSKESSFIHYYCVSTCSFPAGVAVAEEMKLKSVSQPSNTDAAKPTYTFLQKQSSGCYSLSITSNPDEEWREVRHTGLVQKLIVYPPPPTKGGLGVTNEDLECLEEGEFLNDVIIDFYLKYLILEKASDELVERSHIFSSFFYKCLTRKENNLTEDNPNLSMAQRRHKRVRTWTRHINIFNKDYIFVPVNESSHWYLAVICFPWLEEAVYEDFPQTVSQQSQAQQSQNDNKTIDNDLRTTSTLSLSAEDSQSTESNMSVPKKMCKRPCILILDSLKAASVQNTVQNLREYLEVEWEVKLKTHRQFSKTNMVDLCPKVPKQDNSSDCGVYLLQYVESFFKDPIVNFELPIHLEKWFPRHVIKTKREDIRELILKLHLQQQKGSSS

[12] = target: T3, Sentrin-specific protease 6 (Homo sapiens, UniProt Q9GZR1); type: functional;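 note: Luminescence-based dose-response confirmatory assay of SENP6 inhibition, following up an ultra-high-throughput screen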
T3 sequence (Q9GZR1 whole entry): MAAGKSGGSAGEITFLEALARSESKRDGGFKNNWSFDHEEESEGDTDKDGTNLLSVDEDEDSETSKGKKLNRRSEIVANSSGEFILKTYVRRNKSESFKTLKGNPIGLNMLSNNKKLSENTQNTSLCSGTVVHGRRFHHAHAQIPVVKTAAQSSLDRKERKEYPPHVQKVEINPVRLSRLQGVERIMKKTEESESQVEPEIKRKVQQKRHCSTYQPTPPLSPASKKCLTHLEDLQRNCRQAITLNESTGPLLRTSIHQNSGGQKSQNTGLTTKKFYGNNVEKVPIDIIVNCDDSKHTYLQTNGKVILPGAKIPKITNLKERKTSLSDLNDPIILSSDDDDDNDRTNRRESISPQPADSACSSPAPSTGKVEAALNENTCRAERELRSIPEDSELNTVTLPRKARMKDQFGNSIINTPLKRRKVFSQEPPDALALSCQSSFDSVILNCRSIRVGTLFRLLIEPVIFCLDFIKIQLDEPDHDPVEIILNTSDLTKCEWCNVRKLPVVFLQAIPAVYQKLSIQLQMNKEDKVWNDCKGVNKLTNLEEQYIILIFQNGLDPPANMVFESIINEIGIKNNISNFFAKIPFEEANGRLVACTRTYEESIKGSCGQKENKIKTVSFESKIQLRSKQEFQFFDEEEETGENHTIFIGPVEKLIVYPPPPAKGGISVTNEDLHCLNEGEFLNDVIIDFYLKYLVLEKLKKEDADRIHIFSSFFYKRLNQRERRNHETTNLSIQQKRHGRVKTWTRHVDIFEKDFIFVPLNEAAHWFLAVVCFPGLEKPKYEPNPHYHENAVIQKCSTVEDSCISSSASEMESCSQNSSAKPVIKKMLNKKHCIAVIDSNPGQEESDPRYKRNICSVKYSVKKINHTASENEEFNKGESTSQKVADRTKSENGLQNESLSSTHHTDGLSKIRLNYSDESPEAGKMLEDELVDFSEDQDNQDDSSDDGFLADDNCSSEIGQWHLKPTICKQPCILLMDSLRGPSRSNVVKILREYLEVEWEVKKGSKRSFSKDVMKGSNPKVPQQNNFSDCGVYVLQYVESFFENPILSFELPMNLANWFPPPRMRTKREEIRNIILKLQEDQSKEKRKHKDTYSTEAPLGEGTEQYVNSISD

[13] = target: T4, Oxysterols receptor LXR-beta (Homo sapiens, UniProt P55055); type: functional, cell-based;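 note: agonist activity at LXR measured by a cell-based luminescence readout across a dose range, run as a counterscreen for daf-12 agonists; HEK293 cells with Gal4-LXR fusion and GAL4-driven luciferase reporter; potency for activation of Gal4-LXR reporter so compounds are agonists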
T4 sequence (P55055 whole entry): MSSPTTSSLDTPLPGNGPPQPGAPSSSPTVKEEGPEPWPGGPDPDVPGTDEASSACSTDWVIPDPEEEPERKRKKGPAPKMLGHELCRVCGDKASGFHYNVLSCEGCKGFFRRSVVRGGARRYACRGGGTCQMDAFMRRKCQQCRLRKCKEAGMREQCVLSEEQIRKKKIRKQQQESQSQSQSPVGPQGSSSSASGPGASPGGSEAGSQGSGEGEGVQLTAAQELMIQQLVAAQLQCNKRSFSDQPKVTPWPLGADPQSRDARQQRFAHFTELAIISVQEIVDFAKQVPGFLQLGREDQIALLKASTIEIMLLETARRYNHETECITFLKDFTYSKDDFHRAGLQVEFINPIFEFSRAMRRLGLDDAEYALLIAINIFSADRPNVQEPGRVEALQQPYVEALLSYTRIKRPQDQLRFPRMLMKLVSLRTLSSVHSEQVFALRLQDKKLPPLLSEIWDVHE

[14] = test system: H4; test: Luminescence Cell-Based Dose Response HTS to Identify Activators of 5'UTR Stem-Loop Driven Prion Protein mRNA Translation in H4 Neuroglioblastoma Cells. [Related pubchem assays: 1829 (Project Summary), 1814 (Primary HTS)]; type: functional; details: Homo sapiens
[15] = target: T5, Caspase-3 (Homo sapiens, UniProt P42574); type: functional;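 note: Dose-response selectivity test against caspase-3 for candidate inhibitors of sentrin-specific proteases (SENPs)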
T5 sequence (P42574 whole entry): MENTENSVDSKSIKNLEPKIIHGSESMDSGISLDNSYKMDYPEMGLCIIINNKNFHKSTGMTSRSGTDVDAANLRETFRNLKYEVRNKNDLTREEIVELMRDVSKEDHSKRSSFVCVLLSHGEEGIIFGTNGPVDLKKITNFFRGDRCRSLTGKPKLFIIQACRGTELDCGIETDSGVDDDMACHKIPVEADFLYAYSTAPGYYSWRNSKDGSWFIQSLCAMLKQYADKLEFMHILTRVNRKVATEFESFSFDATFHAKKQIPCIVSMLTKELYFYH

[16] = target: T6, Sentrin-specific protease 8 (Homo sapiens, UniProt Q96LD8); type: functional;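 note: luminescence read-out of SENP8 inhibition, dose-response confirmation following an ultra-high-throughput screen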
T6 sequence (Q96LD8 whole entry): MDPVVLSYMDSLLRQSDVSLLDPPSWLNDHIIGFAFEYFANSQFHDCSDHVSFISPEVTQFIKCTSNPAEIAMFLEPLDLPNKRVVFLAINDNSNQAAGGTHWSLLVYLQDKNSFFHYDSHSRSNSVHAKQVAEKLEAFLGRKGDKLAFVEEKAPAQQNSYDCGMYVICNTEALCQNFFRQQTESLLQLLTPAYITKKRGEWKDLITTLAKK

[17] = Luminescence Cell-Based Dose Response to Identify Activators of Luciferase Translation or Activity in H4-C Neuroglioblastoma Cells. [Related pubchem assays: 1829 (Project Summary), 1814 (Primary HTS)]; type: functional
[18] = Luminescence Cell-Based Dose Response to Identify Activators of 5'UTR Stem-Loop Driven Prion Protein mRNA Translation in H4-C Neuroglioblastoma Cells. [Related pubchem assays: 1829 (Project Summary), 1814 (Primary HTS)]; type: functional
[19] = Luminescence Cell-Based Dose Confirmation to Identify Activators of 5'UTR Stem-Loop Driven Alpha-Synuclein mRNA Translation in H4 Neuroglioblastoma Cells. [Related pubchem assays: 1829 (Project Summary), 1814 (Primary HTS)]; type: functional
[20] = Luminescence Cell-Based Dose Response HTS to Identify Activators of Luciferase Translation or Activity in H4 […] Cells. [Related pubchem assays: 1829 (Project Summary), 1814 (Primary HTS)]; type: functional

Chain of COUP transcription factor 2 (P24468 whole entry): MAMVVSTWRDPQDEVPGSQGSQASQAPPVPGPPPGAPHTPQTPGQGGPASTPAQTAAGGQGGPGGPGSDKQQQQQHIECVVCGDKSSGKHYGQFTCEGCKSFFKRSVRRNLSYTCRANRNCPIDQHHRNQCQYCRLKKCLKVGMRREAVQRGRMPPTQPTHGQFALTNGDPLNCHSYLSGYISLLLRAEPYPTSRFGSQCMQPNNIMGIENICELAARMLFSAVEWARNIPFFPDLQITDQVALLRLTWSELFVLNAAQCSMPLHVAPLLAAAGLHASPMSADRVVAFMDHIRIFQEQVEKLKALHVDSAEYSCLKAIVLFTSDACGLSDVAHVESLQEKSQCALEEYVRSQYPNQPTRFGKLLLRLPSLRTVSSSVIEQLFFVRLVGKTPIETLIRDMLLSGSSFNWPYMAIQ
Chain of Paired box protein Pax-8 (Q06710 whole entry): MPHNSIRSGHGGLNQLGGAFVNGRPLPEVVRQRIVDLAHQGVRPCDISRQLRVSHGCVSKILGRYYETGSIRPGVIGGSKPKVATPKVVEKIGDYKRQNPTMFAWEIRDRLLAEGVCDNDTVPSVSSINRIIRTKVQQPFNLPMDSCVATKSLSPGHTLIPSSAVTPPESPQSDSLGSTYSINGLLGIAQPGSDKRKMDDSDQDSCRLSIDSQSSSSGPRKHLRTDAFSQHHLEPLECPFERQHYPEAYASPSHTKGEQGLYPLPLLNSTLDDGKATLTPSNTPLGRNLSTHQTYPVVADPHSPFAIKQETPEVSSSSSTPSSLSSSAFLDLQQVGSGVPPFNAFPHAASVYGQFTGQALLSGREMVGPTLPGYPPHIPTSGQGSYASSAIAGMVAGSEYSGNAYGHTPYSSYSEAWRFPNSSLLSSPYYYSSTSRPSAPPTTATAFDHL
Chain of Protein Wnt-3a (P27467 whole entry): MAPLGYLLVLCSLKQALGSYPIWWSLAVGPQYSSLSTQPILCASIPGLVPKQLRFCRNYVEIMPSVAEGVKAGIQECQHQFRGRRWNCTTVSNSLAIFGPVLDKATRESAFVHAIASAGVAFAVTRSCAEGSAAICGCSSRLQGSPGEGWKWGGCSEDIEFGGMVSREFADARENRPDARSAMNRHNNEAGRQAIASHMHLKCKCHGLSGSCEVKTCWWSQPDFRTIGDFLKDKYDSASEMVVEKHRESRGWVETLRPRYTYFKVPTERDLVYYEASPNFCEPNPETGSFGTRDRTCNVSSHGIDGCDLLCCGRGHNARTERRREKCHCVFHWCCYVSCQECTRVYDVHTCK

With CC[C@@H](O)C[C@H]1CCC[C@@]2(C[C@@H]3OC(=O)/C=C/[C@@](C)(O)[C@@H](O)[C@H](C)[C@@H](O)[C@H](OC4CCC(N(C)C)C(C)O4)[C@@H](O)[C@](C)(O)CCCCC/C=C/[C@@H]4CC(C)(C)O[C@@]4(O)C[C@H](O2)[C@H]3C)O1 (stereo partly drawn) as the compound, how does the IC50 [1] read?
Its IC50 is 0.0061 µM (active).

And the AC50 [2]?
Its AC50 is 20.1 µM (active).

And the AC50 [3]?
Its AC50 is < 0.26 µM (active).

And the IC50 [4]?
Its IC50 is > 0.013 µM (active).

Which results are given for C[C@@H]1CN([C@@H](C)CO)C(=O)c2cc(NC(=O)Cc3ccccc3)ccc2O[C@@H](C)CCCCO[C@H]1CN(C)Cc1ccc(C(F)(F)F)cc1?
AC50 [5]: 9.1 µM (active); AC50 [6]: 44.6 µM (active); AC50 [7]: > 70 µM (inactive)

What does the source list for Fc1ccc(N=C(S)N2CCCN(c3ccc(C(F)(F)F)cn3)CC2)c(F)c1?
AC50 [2]: 1.09 µM (active); AC50 [8]: 3.71 µM (active); AC50 [3]: 27 µM (active); IC50 [9]: 0.142 µM (active); IC50 [4]: 3.07 µM (active); EC50 [10]: > 29.9 µM (inactive)

For Cc1ccc(S(=O)(=O)NC(=NC(S)=Nc2ccccc2)c2ccccc2)cc1, which IC50 [11] is on record?
Its IC50 is 4.8 µM (active).

What about the IC50 [12] of the same compound?
The IC50 was 14.1 µM (active).

What about the EC50 [13] of the same compound?
Its EC50 is > 67.5 µM (inactive).

What about the EC50 [14] of the same compound?
The EC50 was < 0.1 µM (active).

What about the IC50 [15] of the same compound?
Its IC50 is 20.4 µM (active).

And the IC50 [16]?
The IC50 was 22.5 µM (active).

And the EC50 [17]?
Its EC50 is 2.54 µM (active).

What about the EC50 [18] of the same compound?
The EC50 was 0.308 µM (active).

What about the EC50 [19] of the same compound?
Its EC50 is 0.786 µM (active).

And the EC50 [20]?
Its EC50 is < 0.1 µM (inconclusive).
